Test results: paper PMC11124387, “A Reliable Multifaceted Solution against Foodborne Viral Infections: The Case of RiLK1 Decapeptide” (Molecules, 2024)

Test system: Campylobacter jejuni
Format: cell-based
Settings: peptide 40 and 80 µM, 6 h at 37 °C
Excerpt: The monophasic variant of Salmonella Typhimurium, Salmonella Napoli, and Campylobacter jejuni were isolated by the Laboratory of Microbiological Food Control—Department of Food Microbiology of the Istituto Zooprofilattico Sperimentale del Mezzogiorno in Portici (Naples, Italy) in raw and processed foodstuffs of animal origin. Specifically, the monophasic variant of S. Typhimurium and S. Napoli were isolated from bivalve mollusks, while C. jejuni was isolated from poultry meat. Bacterial cells were cultured at 37 °C in the appropriate culture media (S. Typhimurium and S. Napoli in buffered peptone water (Thermo Fisher, Milan, Italy) and C. jejuni in Bolton Broth (Oxoid, Madrid, Spain)) until collection and then diluted in fresh broth to a final concentration of 1.5 × 10^3 colony forming units (CFUs)/mL. Thereafter, peptide stock solutions in DMSO were added to the bacterial suspension at the same concentrations used in the virucidal assays (40 and 80 µM) and incubated at 37 °C for 6 h. Samples containing only cell suspension and DMSO were used as controls. […]

Question: How did the “inhibitory activity against Campylobacter jejuni (in words)” value turn out when “KLRWVKIWKK-NH2 [RiLK30, newly designed RiLK1 derivative, Arg residues exchanged with Lys and Lys3 with Arg]” was run?
Answer: the most ineffective
